Measurements published in patent US4985409A, “Adenosine derivatives and pharmaceutical composition thereof” (Nippon Zoki Pharmaceutical Co., Ltd., priority 1989, dated 1991).

What was measured:
[1] = system: spontaneously hypertensive rats (SHR); assay: Antihypertensive activity (blood pressure in spontaneously hypertensive rats, oral); assay type: in vivo; details: mean ±S.E.
Protocol: The test compounds, which were dissolved or suspended in 0.5% C.M.C. aqueous solution, were orally administered to groups of 3 spontaneously hypertensive rats (SHR), 33 to 36 weeks old, which were fasted for 20 hours before drug administration. Blood pressure was measured before and 2 hours after the administration of the test drug.

[2] = Acute toxicity test (oral LD50, death rate for 14 days); details: mouse, in vivo, ddY-strain male mice
Protocol: The test compounds of the present invention, which were dissolved or suspended in 0.5% carboxymethylcellulose (C.M.C.) aqueous solution, were orally administered to groups of 2 to 5 ddY-strain male mice, and the LD50 values were calculated based on the death rate for 14 days thereafter.

[3] = Rattus norvegicus, 2 hours after oral 0.3 mg/kg, read-out: Blood pressure (Decrease %)
[4] = Rattus norvegicus, 2 hours after oral 3 mg/kg, read-out: Blood pressure (Decrease %)

SMILES	Blood pressure 2 hrs ([1]; 2 hours after oral 3 mg/kg)	inhibition in vivo at 3 mg/kg [1, 4]	LD50 at 336 h [2]	also measured
CO[C@@H]1[C@H](O)[C@@H](CO)O[C@H]1n1cnc2c(NC3CCCC3)ncnc21 [Compound 1, N^6-cyclopentyl-2'-O-methyladenosine]				Blood pressure 2 hrs ([1]; 2 hours after oral 0.3 mg/kg): 98 ± 8 mmHg; inhibition in vivo at 0.3 mg/kg [1, 3]: 56.5 ± 5.5%
CO[C@@H]1[C@H](O)[C@@H](CO)O[C@H]1n1cnc2c(NC3CCCCC3)ncnc21 [Compound 2, N^6-cyclohexyl-2'-O-methyladenosine]				Blood pressure 2 hrs ([1]; 2 hours after oral 0.3 mg/kg): 129 ± 8 mmHg; inhibition in vivo at 0.3 mg/kg [1, 3]: 37.5 ± 1.7%
CO[C@@H]1[C@H](O)[C@@H](CO)O[C@H]1n1cnc2c(NCC(c3ccccc3)c3ccccc3)ncnc21 [Compound 5, N^6-(2,2-diphenylethyl)-2'-O-methyladenosine]	148 ± 19 mmHg	30 ± 8.4%		
CO[C@@H]1[C@H](O)[C@@H](CO)O[C@H]1n1cnc2c(NCc3cccc4ccccc34)ncnc21 [Compound 8, N^6-(1-naphthyl)methyl-2'-O-methyladenosine]	140 ± 7 mmHg	36.2 ± 5.7%	230 mg/kg	
CO[C@@H]1[C@H](O)[C@@H](CO)O[C@H]1n1cnc2c(NC3CCc4ccccc43)ncnc21 (stereo partly shown) [Compound 11, N^6-(2,3-dihydro-1H-indene-1-yl)-2'-O-methyladenosine]	133 ± 21 mmHg	41.3 ± 7%	450 mg/kg	
CO[C@@H]1[C@H](O)[C@@H](CO)O[C@H]1n1cnc2c(NC3Cc4ccccc4C3)ncnc21 [Compound 12, N^6-(2,3-dihydro-1H-indene-2-yl)-2'-O-methyladenosine]				Blood pressure 2 hrs ([1]; 2 hours after oral 10 mg/kg): 164 ± 5 mmHg; inhibition in vivo at 10 mg/kg ([1]; Rattus norvegicus, 2 hours after oral 10 mg/kg, read-out: Blood pressure (Decrease %)): 22.7 ± 2.2%
CO[C@@H]1[C@H](O)[C@@H](CO)O[C@H]1n1cnc2c(NC3CCCc4ccccc43)ncnc21 (stereo partly shown) [Compound 16, N^6-(1-tetrahydronaphthyl)-2'-O-methyladenosine]	109 ± 9 mmHg	47.2 ± 4.2%	230 mg/kg	
CO[C@@H]1[C@H](O)[C@@H](CO)O[C@H]1n1cnc2c(NC3CCc4ccccc4C3)ncnc21 (stereo partly shown) [Compound 17, N^6-(2-tetrahydronaphthyl)-2'-O-methyladenosine]	187 ± 7 mmHg	14.5 ± 1.9%		
CO[C@@H]1[C@H](O)[C@@H](CO)O[C@H]1n1cnc2c(NC3CCOc4ccccc43)ncnc21 (stereo partly shown) [Compound 24, N^6-(4-chromanyl)-2'-O-methyladenosine]			250 mg/kg	Blood pressure 2 hrs ([1]; 2 hours after oral 1 mg/kg): 98 ± 15 mmHg; inhibition in vivo at 1 mg/kg ([1]; Rattus norvegicus, 2 hours after oral 1 mg/kg, read-out: Blood pressure (Decrease %)): 55.4 ± 5.6%
